{
  "source": "paper PMC5063900",
  "about": "“A phase 1 study of the safety, tolerability, pharmacokinetics, and pharmacodynamics of TAK-063, a selective PDE10A inhibitor” (Psychopharmacology, 2016)",
  "test": "CNS Vital Signs (CNSVS) computerized cognition battery",
  "assay_type": "in vivo, human",
  "details": "fasting",
  "protocol": "Cognitive flexibility, attention, executive function, memory, reasoning, motor control, psychomotor speed, reaction time, and information processing speed were assessed predose and at 2 and 6 h following TAK-063 treatment using the CNSVS computerized cognition battery. The CNSVS cognition battery is a well-validated, sensitive measure and included the following tests: verbal and visual memory (VBM and VIM) tests, finger-tapping test, symbol digit coding test, Stroop test, shifting attention test, the nonverbal reasoning test, and the 4-part continuous performance test (Gualtieri and Johnson [2006]). Standardized domain scores for cognitive flexibility, composite memory, executive functioning, processing speed, psychomotor speed, reaction time, reasoning, sustained attention, verbal memory, visual memory, and working memory were reported. In all domains, a decrease in the standardized domain score is indicative of impairment.\nAll statistical analyses were generated using SAS Version 9.2 (SAS, Cary, NC, USA). The PK parameters were derived using non-compartmental methods with WinNonlin Enterprise Version 6.3 (Pharsight Corp., Mountain View, CA, USA). Frequency or descriptive statistics were used for summary of data. Where indicated, percent coefficient of variation was included in the summary of continuous data. All statistical tests were 2-tailed at α = 0.05 level for significance unless otherwise stated. A power model was used to evaluate dose proportionality by race for fasted subjects; in the event of no observed race effect, dose proportionality was assessed for all subjects. To evaluate the food effect, a paired t test was performed on T max and natural log-transformed C max, and AUCs. An ANCOVA model with baseline scores and race as covariates was used to assess the effects of TAK-063 on CNSVS domain scores.",
  "data": [
    {"smiles": "COc1cn(-c2ccc(-n3cccn3)cc2F)nc(-c2ccnn2-c2ccccc2)c1=O", "note": "[TAK-063]", "values": [
      {"measurement": "Cognitive flexibility domain score, Difference (TAK-063 LS mean - placebo LS mean, change from baseline)", "setting": "2 h postdose, 3 mg", "value": 1.3},
      {"measurement": "Composite memory domain score, Difference (TAK-063 LS mean - placebo LS mean, change from baseline)", "setting": "2 h postdose, 3 mg", "value": -7.9},
      {"measurement": "Executive functioning domain score, Difference (TAK-063 LS mean - placebo LS mean, change from baseline)", "setting": "2 h postdose, 3 mg", "value": 0.4},
      {"measurement": "Processing speed domain score, Difference (TAK-063 LS mean - placebo LS mean, change from baseline)", "setting": "2 h postdose, 3 mg", "value": 2.2},
      {"measurement": "Psychomotor speed domain score, Difference (TAK-063 LS mean - placebo LS mean, change from baseline)", "setting": "2 h postdose, 3 mg", "value": -1.5},
      {"measurement": "Reaction time domain score, Difference (TAK-063 LS mean - placebo LS mean, change from baseline)", "setting": "2 h postdose, 3 mg", "value": 4.1},
      {"measurement": "Reasoning domain score, Difference (TAK-063 LS mean - placebo LS mean, change from baseline)", "setting": "2 h postdose, 3 mg", "value": 5.7},
      {"measurement": "Sustained attention domain score, Difference (TAK-063 LS mean - placebo LS mean, change from baseline)", "setting": "2 h postdose, 3 mg", "value": 4.6},
      {"measurement": "Verbal memory domain score, Difference (TAK-063 LS mean - placebo LS mean, change from baseline)", "setting": "2 h postdose, 3 mg", "value": 0.9},
      {"measurement": "Visual memory domain score, Difference (TAK-063 LS mean - placebo LS mean, change from baseline)", "setting": "2 h postdose, 3 mg", "value": -10.3},
      {"measurement": "Working memory domain score, Difference (TAK-063 LS mean - placebo LS mean, change from baseline)", "setting": "2 h postdose, 3 mg", "value": 5.3},
      {"measurement": "Cognitive flexibility domain score, Difference (TAK-063 LS mean - placebo LS mean, change from baseline)", "setting": "2 h postdose, 10 mg", "value": -3.1},
      {"measurement": "Composite memory domain score, Difference (TAK-063 LS mean - placebo LS mean, change from baseline)", "setting": "2 h postdose, 10 mg", "value": -5.2},
      {"measurement": "Executive functioning domain score, Difference (TAK-063 LS mean - placebo LS mean, change from baseline)", "setting": "2 h postdose, 10 mg", "value": -2.7},
      {"measurement": "Processing speed domain score, Difference (TAK-063 LS mean - placebo LS mean, change from baseline)", "setting": "2 h postdose, 10 mg", "value": 0.7},
      {"measurement": "Psychomotor speed domain score, Difference (TAK-063 LS mean - placebo LS mean, change from baseline)", "setting": "2 h postdose, 10 mg", "value": -8.5},
      {"measurement": "Reaction time domain score, Difference (TAK-063 LS mean - placebo LS mean, change from baseline)", "setting": "2 h postdose, 10 mg", "value": -2.3},
      {"measurement": "Reasoning domain score, Difference (TAK-063 LS mean - placebo LS mean, change from baseline)", "setting": "2 h postdose, 10 mg", "value": 10.8},
      {"measurement": "Sustained attention domain score, Difference (TAK-063 LS mean - placebo LS mean, change from baseline)", "setting": "2 h postdose, 10 mg", "value": 0.7},
      {"measurement": "Verbal memory domain score, Difference (TAK-063 LS mean - placebo LS mean, change from baseline)", "setting": "2 h postdose, 10 mg", "value": -4.0},
      {"measurement": "Visual memory domain score, Difference (TAK-063 LS mean - placebo LS mean, change from baseline)", "setting": "2 h postdose, 10 mg", "value": -3.3},
      {"measurement": "Working memory domain score, Difference (TAK-063 LS mean - placebo LS mean, change from baseline)", "setting": "2 h postdose, 10 mg", "value": 1.1},
      {"measurement": "Cognitive flexibility domain score, Difference (TAK-063 LS mean - placebo LS mean, change from baseline)", "setting": "2 h postdose, 30 mg", "value": 0.2},
      {"measurement": "Composite memory domain score, Difference (TAK-063 LS mean - placebo LS mean, change from baseline)", "setting": "2 h postdose, 30 mg", "value": 2.8},
      {"measurement": "Executive functioning domain score, Difference (TAK-063 LS mean - placebo LS mean, change from baseline)", "setting": "2 h postdose, 30 mg", "value": 0.5},
      {"measurement": "Processing speed domain score, Difference (TAK-063 LS mean - placebo LS mean, change from baseline)", "setting": "2 h postdose, 30 mg", "value": 4.3},
      {"measurement": "Psychomotor speed domain score, Difference (TAK-063 LS mean - placebo LS mean, change from baseline)", "setting": "2 h postdose, 30 mg", "value": -1.7},
      {"measurement": "Reaction time domain score, Difference (TAK-063 LS mean - placebo LS mean, change from baseline)", "setting": "2 h postdose, 30 mg", "value": 3.1},
      {"measurement": "Reasoning domain score, Difference (TAK-063 LS mean - placebo LS mean, change from baseline)", "setting": "2 h postdose, 30 mg", "value": 6.4},
      {"measurement": "Sustained attention domain score, Difference (TAK-063 LS mean - placebo LS mean, change from baseline)", "setting": "2 h postdose, 30 mg", "value": 10.3},
      {"measurement": "Verbal memory domain score, Difference (TAK-063 LS mean - placebo LS mean, change from baseline)", "setting": "2 h postdose, 30 mg", "value": 12.4},
      {"measurement": "Visual memory domain score, Difference (TAK-063 LS mean - placebo LS mean, change from baseline)", "setting": "2 h postdose, 30 mg", "value": -5.2},
      {"measurement": "Working memory domain score, Difference (TAK-063 LS mean - placebo LS mean, change from baseline)", "setting": "2 h postdose, 30 mg", "value": 6.5},
      {"measurement": "Cognitive flexibility domain score, Difference (TAK-063 LS mean - placebo LS mean, change from baseline)", "setting": "2 h postdose, 100 mg", "value": -20.2},
      {"measurement": "Composite memory domain score, Difference (TAK-063 LS mean - placebo LS mean, change from baseline)", "setting": "2 h postdose, 100 mg", "value": -24.1},
      {"measurement": "Executive functioning domain score, Difference (TAK-063 LS mean - placebo LS mean, change from baseline)", "setting": "2 h postdose, 100 mg", "value": -17.8},
      {"measurement": "Processing speed domain score, Difference (TAK-063 LS mean - placebo LS mean, change from baseline)", "setting": "2 h postdose, 100 mg", "value": -6.1},
      {"measurement": "Psychomotor speed domain score, Difference (TAK-063 LS mean - placebo LS mean, change from baseline)", "setting": "2 h postdose, 100 mg", "value": -15.2},
      {"measurement": "Reaction time domain score, Difference (TAK-063 LS mean - placebo LS mean, change from baseline)", "setting": "2 h postdose, 100 mg", "value": -15.6},
      {"measurement": "Reasoning domain score, Difference (TAK-063 LS mean - placebo LS mean, change from baseline)", "setting": "2 h postdose, 100 mg", "value": 4.6},
      {"measurement": "Sustained attention domain score, Difference (TAK-063 LS mean - placebo LS mean, change from baseline)", "setting": "2 h postdose, 100 mg", "value": -7.0},
      {"measurement": "Verbal memory domain score, Difference (TAK-063 LS mean - placebo LS mean, change from baseline)", "setting": "2 h postdose, 100 mg", "value": -24.0},
      {"measurement": "Visual memory domain score, Difference (TAK-063 LS mean - placebo LS mean, change from baseline)", "setting": "2 h postdose, 100 mg", "value": -15.4},
      {"measurement": "Working memory domain score, Difference (TAK-063 LS mean - placebo LS mean, change from baseline)", "setting": "2 h postdose, 100 mg", "value": -3.8},
      {"measurement": "Cognitive flexibility domain score, Difference (TAK-063 LS mean - placebo LS mean, change from baseline)", "setting": "2 h postdose, 300 mg", "value": -30.9},
      {"measurement": "Composite memory domain score, Difference (TAK-063 LS mean - placebo LS mean, change from baseline)", "setting": "2 h postdose, 300 mg", "value": -26.9},
      {"measurement": "Executive functioning domain score, Difference (TAK-063 LS mean - placebo LS mean, change from baseline)", "setting": "2 h postdose, 300 mg", "value": -29.0},
      {"measurement": "Processing speed domain score, Difference (TAK-063 LS mean - placebo LS mean, change from baseline)", "setting": "2 h postdose, 300 mg", "value": -17.6},
      {"measurement": "Psychomotor speed domain score, Difference (TAK-063 LS mean - placebo LS mean, change from baseline)", "setting": "2 h postdose, 300 mg", "value": -18.0},
      {"measurement": "Reaction time domain score, Difference (TAK-063 LS mean - placebo LS mean, change from baseline)", "setting": "2 h postdose, 300 mg", "value": -10.3},
      {"measurement": "Reasoning domain score, Difference (TAK-063 LS mean - placebo LS mean, change from baseline)", "setting": "2 h postdose, 300 mg", "value": 0.5},
      {"measurement": "Sustained attention domain score, Difference (TAK-063 LS mean - placebo LS mean, change from baseline)", "setting": "2 h postdose, 300 mg", "value": -9.0},
      {"measurement": "Verbal memory domain score, Difference (TAK-063 LS mean - placebo LS mean, change from baseline)", "setting": "2 h postdose, 300 mg", "value": -26.7},
      {"measurement": "Visual memory domain score, Difference (TAK-063 LS mean - placebo LS mean, change from baseline)", "setting": "2 h postdose, 300 mg", "value": -17.2},
      {"measurement": "Working memory domain score, Difference (TAK-063 LS mean - placebo LS mean, change from baseline)", "setting": "2 h postdose, 300 mg", "value": -3.1},
      {"measurement": "Cognitive flexibility domain score, Difference (TAK-063 LS mean - placebo LS mean, change from baseline)", "setting": "2 h postdose, 1000 mg", "value": -19.6},
      {"measurement": "Composite memory domain score, Difference (TAK-063 LS mean - placebo LS mean, change from baseline)", "setting": "2 h postdose, 1000 mg", "value": -16.6},
      {"measurement": "Executive functioning domain score, Difference (TAK-063 LS mean - placebo LS mean, change from baseline)", "setting": "2 h postdose, 1000 mg", "value": -16.6},
      {"measurement": "Processing speed domain score, Difference (TAK-063 LS mean - placebo LS mean, change from baseline)", "setting": "2 h postdose, 1000 mg", "value": -17.9},
      {"measurement": "Psychomotor speed domain score, Difference (TAK-063 LS mean - placebo LS mean, change from baseline)", "setting": "2 h postdose, 1000 mg", "value": -18.7},
      {"measurement": "Reaction time domain score, Difference (TAK-063 LS mean - placebo LS mean, change from baseline)", "setting": "2 h postdose, 1000 mg", "value": -7.1},
      {"measurement": "Reasoning domain score, Difference (TAK-063 LS mean - placebo LS mean, change from baseline)", "setting": "2 h postdose, 1000 mg", "value": -0.5},
      {"measurement": "Sustained attention domain score, Difference (TAK-063 LS mean - placebo LS mean, change from baseline)", "setting": "2 h postdose, 1000 mg", "value": -5.0},
      {"measurement": "Verbal memory domain score, Difference (TAK-063 LS mean - placebo LS mean, change from baseline)", "setting": "2 h postdose, 1000 mg", "value": -10.0},
      {"measurement": "Visual memory domain score, Difference (TAK-063 LS mean - placebo LS mean, change from baseline)", "setting": "2 h postdose, 1000 mg", "value": -14.5},
      {"measurement": "Working memory domain score, Difference (TAK-063 LS mean - placebo LS mean, change from baseline)", "setting": "2 h postdose, 1000 mg", "value": -2.5},
      {"measurement": "Cognitive flexibility domain score, Difference (TAK-063 LS mean - placebo LS mean, change from baseline)", "setting": "6 h postdose, 3 mg", "value": 2.9}
    ]}
  ]
}
